Earlier results in patent publication US7604185B2, “Generation of therapeutic microfoam” (BTG International Ltd., priority 2002, dated 2009).

Details: in water at STP

Mole Fraction Solubility 10^−3	Structure (SMILES)
61.5 10^−3	O=C=O [Carbon dioxide]
43.7 10^−3	[N-]=[N+]=O [Nitrous oxide]
2.3 10^−3	O=O [Oxygen]

Structure (SMILES)	Mole Fraction Solubility 10^−3
[He] [Helium]	0.7 10^−3
